PMC8973347, “Discovery of novel sulphonamide hybrids that inhibit LSD1 against bladder cancer cells” (Journal of Enzyme Inhibition and Medicinal Chemistry, 2022)
“Also recorded” adds a separate entry of the source. Read-outs that look alike come from different tables or passages of the source.

How the values were obtained:
[1] = tested on: NAMPT; design: method as in PMID 30992165; conditions: cited from earlier work
[2] = tested on: DU145; design: method as in PMID 30992165; conditions: cited from earlier work
[3] = tested on: Hela; design: method as in PMID 30992165; conditions: cited from earlier work
[4] = tested on: H1975; design: method as in PMID 30992165; conditions: cited from earlier work
[5] = tested on: PC-3 cells; design: method as in PMID 28872607; conditions: read-out: IC50 against PC-3 cells; cited from earlier work
[6] = tested on: HCT-116; design: method as in PMID 31181480; conditions: read-out: IC50 against HCT-116; cited from earlier work
[7] = tested on: RKO; design: method as in PMID 31181480; conditions: read-out: IC50 against RKO; cited from earlier work
[8] = tested on: A2780; design: method as in PMID 31181480; conditions: read-out: IC50 against A2780; cited from earlier work
[9] = tested on: Hela; design: method as in PMID 31181480; conditions: read-out: IC50 against Hela; cited from earlier work
[10] = target: T1, MAO-A (Homo sapiens, UniProt P21397); assay: MAO-A/B biochemical kit, MAO-A
T1 construct: purchased Promega
T1 sequence (P21397 1-527): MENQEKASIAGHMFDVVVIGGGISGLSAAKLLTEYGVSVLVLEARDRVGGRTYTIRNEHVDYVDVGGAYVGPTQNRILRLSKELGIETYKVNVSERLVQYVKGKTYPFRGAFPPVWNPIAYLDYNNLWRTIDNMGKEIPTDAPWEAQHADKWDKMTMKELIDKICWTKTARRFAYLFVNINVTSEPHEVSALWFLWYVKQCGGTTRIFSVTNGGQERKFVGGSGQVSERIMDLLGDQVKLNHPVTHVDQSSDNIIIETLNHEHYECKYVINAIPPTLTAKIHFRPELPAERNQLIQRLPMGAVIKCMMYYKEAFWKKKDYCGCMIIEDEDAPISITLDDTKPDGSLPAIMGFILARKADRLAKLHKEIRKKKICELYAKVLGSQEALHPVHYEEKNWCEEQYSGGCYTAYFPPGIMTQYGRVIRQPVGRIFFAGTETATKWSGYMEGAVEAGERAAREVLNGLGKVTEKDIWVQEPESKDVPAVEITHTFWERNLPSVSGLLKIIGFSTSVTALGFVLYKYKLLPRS
Excerpt: (§1) LSD1 inhibitor screening assay kit was purchased to evaluate for the enzyme inhibition activity of all synthetic compounds (Cayman Chemical, Fort Annapolis, MI). The MAO-A/B biochemical kit was purchased to explore the inhibitory activity against MAO-A and MAO-B (Promega, Madison, WI). […] The signal of each well was read by a GloMax Explorer (Beijing Yuanpinghao Biotechnology Co., Ltd, Beijing, China).

[11] = target: T2, MAO-B (Homo sapiens, UniProt P27338); assay: MAO-A/B biochemical kit, MAO-B
T2 construct: purchased Promega
T2 sequence (P27338 1-520): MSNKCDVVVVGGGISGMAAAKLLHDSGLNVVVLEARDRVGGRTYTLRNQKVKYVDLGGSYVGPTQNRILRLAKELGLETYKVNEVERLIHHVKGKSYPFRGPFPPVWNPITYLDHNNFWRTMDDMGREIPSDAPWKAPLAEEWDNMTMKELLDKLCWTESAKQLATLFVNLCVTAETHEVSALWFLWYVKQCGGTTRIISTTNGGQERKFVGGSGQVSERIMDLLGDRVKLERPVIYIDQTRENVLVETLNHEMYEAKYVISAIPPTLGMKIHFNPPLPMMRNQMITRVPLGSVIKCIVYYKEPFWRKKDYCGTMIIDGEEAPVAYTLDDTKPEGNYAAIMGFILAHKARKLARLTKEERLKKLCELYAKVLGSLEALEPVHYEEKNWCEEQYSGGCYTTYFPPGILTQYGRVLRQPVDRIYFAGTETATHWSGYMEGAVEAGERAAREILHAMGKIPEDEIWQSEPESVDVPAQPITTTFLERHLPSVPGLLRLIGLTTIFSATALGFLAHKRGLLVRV
Excerpt: as §1

[12] = target: T3, LSD1 (Homo sapiens, UniProt O60341); assay: LSD1 inhibitor screening assay kit
Excerpt: as §1

[13] = tested on: H3K4me1, H3K4me2, and H3K9me2 in HT1376 cells; assay: Western blotting of LSD1 substrates; format: cell-based; conditions: Figure 4(D)
Protocol: Cells were seeded in four-well plates (Shanghai Yuanye Biotechnology Co., Ltd, Shanghai, China) and exposed to different compounds at different concentrations. Cells were harvested to obtain protein solution by the RIPA Lysis Buffer (DeTie, NanJing, China). The proteins were separated on sodium dodecyl sulphate–polyacrylamide gel electrophoresis (SDS-PAGE) gels and then transferred to poly(vinylidene fluoride (PVDF) membranes (Shanghai Yuanye Biotechnology Co., Ltd, Shanghai, China). It incubated with the primary antibodies and corresponding HRP conjugated secondary antibodies (Servicebio, Wuhan, China). The […] kit (Servicebio, Wuhan, China) was used to visualise the bands.

[14] = target: T3, LSD1; assay: LSD1 dilution assay; format: biochemical; design: purchased Cayman Chemical; conditions: diluted 80 times; Figure 3(C)
Protocol: LSD1 recombinant (Cayman Chemical, […], MI) was incubated with the targeted compound or dimethyl sulphoxide for 60 min. Then, samples were diluted 80 times using a HRP-assay solution containing substrate and coupling reagents. Finally, LSD1 inhibitory activity before and after dilution was examined.

[15] = tested on: HTB3 (human bladder cell line); assay: MTT cell viability assay, HTB3; conditions: read-out: IC50 against HTB3 cells, 48 h
Protocol: (§2) Cells were cultured at a 96-well plate for 24 h (Cayman Chemical, Fort Annapolis, MI) and different compounds were added. […] The solution was removed and dimethyl sulphoxide was added. Thirty minutes later, absorption values were read by a Fully Automated Microplate ELISA Analyser (DeTie, NanJing, China).

[16] = tested on: LX-2 (normal human hepatic stellate cell line); assay: MTT cell viability assay, LX-2; conditions: read-out: IC50 against LX-2 normal cell line, 48 h
Protocol: as §2

[17] = tested on: HIEC (normal human intestinal epithelial cell line); assay: MTT cell viability assay, HIEC; conditions: read-out: IC50 against HIEC normal cell line, 48 h
Protocol: as §2

[18] = tested on: HTB5 cells (bladder cancer cell line); assay: MTT cell viability assay, HTB5; conditions: read-out: IC50 against HTB5 cells; 48 h
Protocol: as §2

[19] = tested on: HTB1 cells (bladder cancer cell line); assay: MTT cell viability assay, HTB1; conditions: read-out: IC50 against HTB1 cells; 48 h
Protocol: as §2

[20] = tested on: H1299 (human lung cell line); assay: MTT cell viability assay, H1299; conditions: read-out: IC50 against H1299 cells, 48 h
Protocol: as §2

[21] = tested on: HCT-15 (human colon cell line); assay: MTT cell viability assay, HCT-15; conditions: read-out: IC50 against HCT-15 cells, 48 h
Protocol: as §2

[22] = tested on: Jurkat (human leukaemia cell line); assay: MTT cell viability assay, Jurkat; conditions: read-out: IC50 against Jurkat cells, 48 h
Protocol: as §2

[23] = tested on: HT1376 cells (bladder cancer cell line); assay: MTT cell viability assay, HT1376; conditions: read-out: IC50 against HT1376 cells; 48 h
Protocol: as §2

[24] = tested on: Bel7402 (human liver cell line); assay: MTT cell viability assay, Bel7402; conditions: read-out: IC50 against Bel7402 cells, 48 h
Protocol: as §2

[25] = tested on: HPAEpiC (normal human alveolar epithelial cell line); assay: MTT cell viability assay, HPAEpiC; conditions: read-out: IC50 against HPAEpiC normal cell line, 48 h
Protocol: as §2

[26] = tested on: SGC-7901 (human gastric cell line); assay: MTT cell viability assay, SGC-7901; conditions: read-out: IC50 against SGC-7901 cells, 48 h
Protocol: as §2

[27] = tested on: HTB3&shControl cells; assay: Antiproliferative activity, control cells HTB3&shControl; conditions: read-out: IC50 against HTB3&shControl cells
Protocol: as §2

[28] = tested on: HT1376&shControl cells; assay: Antiproliferative activity, control cells HT1376&shControl; conditions: read-out: IC50 against HT1376&shControl cells
Protocol: as §2

[29] = tested on: HTB3&shLSD1 cells; assay: Antiproliferative activity, LSD1 knock-down cells HTB3&shLSD1; conditions: read-out: IC50 against HTB3&shLSD1 cells
Protocol: as §2

[30] = tested on: HT1376&shLSD1 cells; assay: Antiproliferative activity, LSD1 knock-down cells HT1376&shLSD1; conditions: read-out: IC50 against HT1376&shLSD1 cells
Protocol: as §2

Cc1ccccc1NS(=O)(=O)c1cccc(CCCCCCNC(=O)/C=C/c2cccnc2)c1 [Compound 4]
IC50 [1]: 5.08 nM | antiproliferative activity against DU145 cells [2]: single-digit nanomolar | antiproliferative activity against Hela cells [3]: single-digit nanomolar | antiproliferative activity against H1975 cells [4]: single-digit nanomolar

Cc1ccc(S(=O)(=O)NCc2cn(Cc3cccc(Oc4ccccc4)c3)nn2)cc1 [Compound 5]
IC50 [5]: 4080 nM

COc1cccc(Nc2ccnc3cc(OCCCc4ccccc4)ccc23)c1 [Compound 8]
IC50 [6]: 2560 nM | IC50 [7]: 3670 nM | IC50 [8]: 3460 nM | IC50 [9]: 2710 nM

COc1cc(N(CCSC(=S)N2CCN(C(=O)OC(C)(C)C)CC2)S(=O)(=O)c2cccc3cccnc23)cc(OC)c1OC [Compound L1, Tert-butyl-4-(((2-(N-(3,4,5-trimethoxyphenyl)quinoline-8-sulfonamido)ethyl)thio)carbonothioyl)piperazine-1-carboxylate]
IC50 [10]: > 120 µM | IC50 [11]: > 120 µM | melting point: 121 to 123 °C | IC50 [12]: 2.73 ± 0.29 µM

COc1cc(N(CCCSC(=S)N2CCN(C(=O)OC(C)(C)C)CC2)S(=O)(=O)c2cccc3cccnc23)cc(OC)c1OC [Compound L2, Tert-butyl-4-(((3-(N-(3,4,5-trimethoxyphenyl)quinoline-8-sulfonamido)propyl)thio)carbonothioyl)piperazine-1-carboxylate]
IC50 [10]: > 120 µM | IC50 [11]: > 120 µM | melting point: 130 to 132 °C | IC50 [12]: 1.39 ± 0.14 µM

COc1cc(N(CCCCSC(=S)N2CCN(C(=O)OC(C)(C)C)CC2)S(=O)(=O)c2cccc3cccnc23)cc(OC)c1OC [Compound L6, Tert-butyl-4-(((4-(N-(3,4,5-trimethoxyphenyl)quinoline-8-sulfonamido)butyl)thio)carbonothioyl)piperazine-1-carboxylate]
IC50 [10]: > 120 µM | IC50 [11]: > 120 µM | melting point: 98 to 100 °C | IC50 [12]: 0.23 ± 0.05 µM

COc1cc(N(CCCCSC(=S)N2CCN(CCO)CC2)S(=O)(=O)c2cccc3cccnc23)cc(OC)c1OC [Compound L8, 4-(N-(3,4,5-trimethoxyphenyl)quinoline-8-sulfonamido)butyl-4–(2-hydroxyethyl)piperazine-1-carbodithioate]
IC50 [10]: > 120 µM | inhibitory rate MAO-A ([10]; at 100 nM): 10.33% | IC50 [11]: > 120 µM | inhibitory rate MAO-B ([11]; at 100 nM): 9.33% | expression levels of H3K4me1, H3K4me2, and H3K9me2 [13]: increasing; also recorded: increased | reversibility of LSD1 inhibition [14]: reversible | IC50 [15]: 180 nM | IC50 [16]: > 16000 nM | IC50 [17]: > 16000 nM | IC50 [18]: 1870 nM | IC50 [19]: 930 nM | IC50 [20]: 310 nM | IC50 [21]: 2170 nM | IC50 [22]: 290 nM | IC50 [23]: 90 nM | IC50 [24]: 960 nM | IC50 [25]: > 16000 nM | time dependence of LSD1 inhibition ([12]; Figure 3(B)): time-dependent | inhibition against LSD1 ([12]; at 25 nM): about 30.33% | inhibition against LSD1 ([12]; at 50 nM): ~46.00% | inhibition against LSD1 ([12]; at 100 nM): ~68.00% | IC50 ([12]; read-out: IC50 (μM) LSD1): 0.06 ± 0.01 µM | IC50 [26]: 2670 nM | IC50 [27]: 230 nM | IC50 [28]: 110 nM | IC50 [29]: 3070 nM | IC50 [30]: 4360 nM
